Source: patent US20230295234A1, “ANTIMICROBIAL PEPTIDOMIMETICS” (SPEXIS AG, priority 2020, published 2023)
Peptide text beside a SMILES is read from it.

Tests used:
[1] = system: human red blood cells (hRBC); assay: Hemolysis of human red blood cells; assay type: cell-based; settings: red cells of human, 1 h
Procedure, shortened: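 PBS-washed human red blood cells (20% v/v) were incubated with peptide at 200 μg/mL for 1 h at 37 °C with shaking. Supernatant OD was read at 540 nm after 8-fold dilution. Hemolysis is expressed as percent of the water control.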

[2] = system: Escherichia coli MCR-1 Af 45; settings: MCR-1 Af 45
Procedure, shortened: (§1)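 Two-fold serial dilutions of peptide, in water with polysorbate 80 (0.002% final), met bacteria adjusted to 0.5 McFarland then diluted to about 5×10^5 CFU/mL. Medium was cation-adjusted Mueller-Hinton II broth; peptide stocks were 1 mg/mL in sterile water.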

[3] = system: Escherichia coli ATCC 25922; settings: ATCC 25922
Procedure, shortened: as §1

[4] = system: Klebsiella pneumoniae SSI3010; settings: SSI3010
Procedure, shortened: as §1

Structure (SMILES)	Hemolysis at 0.2 g/L [1]	Escherichia coli MCR-1 Af 45 MIC [2]	Escherichia coli ATCC 25922 MIC [3]	Klebsiella pneumoniae SSI3010 MIC [4]
CCCC[C@H](NC(=O)[C@H](CCCNC(=N)N)NC(=O)[C@H](CCC(N)=O)NC(=O)[C@@H]1CSSC[C@H](NC(=O)[C@H](Cc2ccc(O)cc2)NC(=O)[C@@H](NC(=O)[C@@H](NC(=O)[C@@H]2CCCN2C(=O)[C@@H](NC(=O)[C@@H]2CCCN2C(=O)[C@H](CCCCN)NC(=O)[C@@H](N)CCCCN)C(C)C)[C@@H](C)CC)[C@@H](C)CC)C(=O)N[C@@H](CC(N)=O)C(=O)N[C@@H](CCCNC(=N)N)C(=O)N[C@@H](CCN)C(=O)N[C@@H]([C@@H](C)O)C(=O)N[C@H](CCN)C(=O)N[C@@H](CCCCN)C(=O)N1)C(=O)O [Example 67] (HELM PEPTIDE1{K.K.P.V.P.I.I.Y.C.N.R.[Dab].T.[NCC[C@@H](N[*:1])C(=O)[*:2]].K.C.Q.R.[Nle]}$PEPTIDE1,PEPTIDE1,9:R3-16:R3$$$V2.0)	0%	0.25 µg/mL	0.125 µg/mL	0.25 µg/mL
CCCC[C@H](NC(=O)[C@H](CCCNC(=N)N)NC(=O)[C@H](CCCNC(=N)N)NC(=O)[C@@H]1CSSC[C@H](NC(=O)[C@H](Cc2ccc(O)cc2)NC(=O)[C@@H](NC(=O)[C@@H](NC(=O)[C@@H]2CCCN2C(=O)[C@@H](NC(=O)[C@@H]2CCCN2C(=O)[C@H](CCCCN)NC(=O)[C@@H](N)CCCCN)C(C)C)[C@@H](C)CC)[C@@H](C)CC)C(=O)N[C@@H](CC(N)=O)C(=O)N[C@@H](CCCNC(=N)N)C(=O)N[C@@H](CCN)C(=O)N[C@@H]([C@@H](C)O)C(=O)N[C@H](CCN)C(=O)N[C@@H](CCCCN)C(=O)N1)C(=O)O [Example 68] (HELM PEPTIDE1{K.K.P.V.P.I.I.Y.C.N.R.[Dab].T.[NCC[C@@H](N[*:1])C(=O)[*:2]].K.C.R.R.[Nle]}$PEPTIDE1,PEPTIDE1,9:R3-16:R3$$$V2.0)	0%	0.0625 µg/mL	0.03125 µg/mL	≤0.125 µg/mL
CCCC[C@H](NC(=O)[C@H](CCCNC(=N)N)NC(=O)[C@H](CCC(N)=O)NC(=O)[C@@H]1CSSC[C@H](NC(=O)[C@H](Cc2ccc(O)cc2)NC(=O)[C@@H](NC(=O)[C@@H](NC(=O)[C@@H]2CCCN2C(=O)[C@@H](NC(=O)[C@@H]2CCCN2C(=O)[C@H](CCCCN)NC(=O)[C@@H](N)CCCCN)C(C)C)[C@@H](C)CC)[C@@H](C)CC)C(=O)N[C@@H](CC(N)=O)C(=O)N[C@@H](CCCNC(=N)N)C(=O)N[C@@H](CCCNC(=N)N)C(=O)N[C@@H]([C@@H](C)O)C(=O)N[C@H](CCN)C(=O)N[C@@H](CCN)C(=O)N1)C(=O)O [Example 69] (HELM PEPTIDE1{K.K.P.V.P.I.I.Y.C.N.R.R.T.[NCC[C@@H](N[*:1])C(=O)[*:2]].[Dab].C.Q.R.[Nle]}$PEPTIDE1,PEPTIDE1,9:R3-16:R3$$$V2.0)	0%	0.125 µg/mL	0.0625 µg/mL	0.125 µg/mL
CCCC[C@H](NC(=O)[C@H](CCCNC(=N)N)NC(=O)[C@H](CCN)NC(=O)[C@@H]1CSSC[C@H](NC(=O)[C@H](Cc2ccc(O)cc2)NC(=O)[C@@H](NC(=O)[C@@H](NC(=O)[C@@H]2CCCN2C(=O)[C@@H](NC(=O)[C@@H]2CCCN2C(=O)[C@H](CCCCN)NC(=O)[C@H](N)CCCCN)C(C)C)[C@@H](C)CC)[C@@H](C)CC)C(=O)N[C@@H](CC(N)=O)C(=O)N[C@@H](CCCNC(=N)N)C(=O)N[C@@H](CCCNC(=N)N)C(=O)N[C@@H]([C@@H](C)O)C(=O)N[C@H](CCN)C(=O)N[C@@H](CCCCN)C(=O)N1)C(=O)O [Example 70] (HELM PEPTIDE1{[dK].K.P.V.P.I.I.Y.C.N.R.R.T.[NCC[C@@H](N[*:1])C(=O)[*:2]].K.C.[Dab].R.[Nle]}$PEPTIDE1,PEPTIDE1,9:R3-16:R3$$$V2.0)	0%	0.0625 µg/mL	0.03125 µg/mL	0.125 µg/mL
CC[C@H](C)[C@H](NC(=O)[C@@H](NC(=O)[C@@H]1CCCN1C(=O)[C@@H](NC(=O)[C@@H]1CCCN1C(=O)[C@H](CCCNC(=N)N)NC(=O)[C@@H](N)CCCCN)C(C)C)[C@@H](C)CC)C(=O)N[C@@H](Cc1ccc(O)cc1)C(=O)N[C@H]1CSSC[C@@H](C(=O)N[C@@H](CCN)C(=O)N[C@@H](CCCNC(=N)N)C(=O)N[C@@H](Cc2ccc(O)cc2)C(=O)O)NC(=O)[C@H](CCCCN)NC(=O)[C@@H](CCN)NC(=O)[C@H]([C@@H](C)O)NC(=O)[C@H](CCN)NC(=O)[C@H](CCCNC(=N)N)NC(=O)[C@H](CC(N)=O)NC1=O [Example 71] (HELM PEPTIDE1{K.R.P.V.P.I.I.Y.C.N.R.[Dab].T.[NCC[C@@H](N[*:1])C(=O)[*:2]].K.C.[Dab].R.Y}$PEPTIDE1,PEPTIDE1,9:R3-16:R3$$$V2.0)	0%	0.0625 µg/mL	0.0625 µg/mL	0.0625 µg/mL
CCCC[C@H](NC(=O)[C@H](CCCNC(=N)N)NC(=O)[C@H](CCN)NC(=O)[C@@H]1CSSC[C@H](NC(=O)[C@H](Cc2ccc(O)cc2)NC(=O)[C@H](CCCNC(=N)N)NC(=O)[C@@H](NC(=O)[C@@H]2CCCN2C(=O)[C@@H](NC(=O)[C@@H]2CCCN2C(=O)[C@H](CCCNC(=N)N)NC(=O)[C@@H](N)CCCCN)C(C)C)[C@@H](C)CC)C(=O)N[C@@H](CC(N)=O)C(=O)N[C@@H](CCCNC(=N)N)C(=O)N[C@@H](CCN)C(=O)N[C@@H]([C@@H](C)O)C(=O)N[C@H](CCN)C(=O)N[C@@H](CCCCN)C(=O)N1)C(=O)O [Example 72] (HELM PEPTIDE1{K.R.P.V.P.I.R.Y.C.N.R.[Dab].T.[NCC[C@@H](N[*:1])C(=O)[*:2]].K.C.[Dab].R.[Nle]}$PEPTIDE1,PEPTIDE1,9:R3-16:R3$$$V2.0)	0%	0.0625 µg/mL	≤0.0625 µg/mL	≤0.25 µg/mL
CCCC[C@H](NC(=O)[C@H](CCCNC(=N)N)NC(=O)[C@H](CCN)NC(=O)[C@H]1NC(=O)[C@H](CCCCN)NC(=O)[C@@H](CCN)NC(=O)[C@H]([C@@H](C)O)NC(=O)[C@H](CCN)NC(=O)[C@H](CCCNC(=N)N)NC(=O)[C@H](CC(N)=O)NC(=O)[C@@H](NC(=O)[C@H](Cc2ccc(O)cc2)NC(=O)[C@@H](NC(=O)[C@@H](NC(=O)[C@@H]2CCCN2C(=O)[C@@H](NC(=O)[C@@H]2CCCN2C(=O)[C@H](CCCNC(=N)N)NC(=O)[C@@H](N)CCCCN)C(C)C)[C@@H](C)CC)[C@@H](C)CC)CSSC1(C)C)C(=O)O [Example 73] (HELM PEPTIDE1{K.R.P.V.P.I.I.Y.C.N.R.[Dab].T.[NCC[C@@H](N[*:1])C(=O)[*:2]].K.[Pen].[Dab].R.[Nle]}$PEPTIDE1,PEPTIDE1,9:R3-16:R3$$$V2.0)	0%	0.0625 µg/mL	≤0.125 µg/mL	0.125 µg/mL
CCCC[C@H](NC(=O)[C@H](CCCNC(=N)N)NC(=O)[C@H](CCN)NC(=O)[C@@H]1CSSC[C@H](NC(=O)[C@H](Cc2ccc(O)cc2)NC(=O)[C@H](CCCNC(=N)N)NC(=O)[C@@H](NC(=O)[C@@H]2C[C@@H](N)CN2C(=O)[C@@H](NC(=O)[C@@H]2CCCN2C(=O)[C@H](CCCCN)NC(=O)[C@@H](N)CCCCN)C(C)C)[C@@H](C)CC)C(=O)N[C@@H](CC(N)=O)C(=O)N[C@@H](CCCNC(=N)N)C(=O)N[C@@H](CCCNC(=N)N)C(=O)N[C@@H]([C@@H](C)O)C(=O)N[C@H](CCN)C(=O)N[C@@H](CCCCN)C(=O)N1)C(=O)O [Example 74] (HELM PEPTIDE1{K.K.P.V.[N[C@@H]1C[C@@H](C(=O)[*:2])N([*:1])C1].I.R.Y.C.N.R.R.T.[NCC[C@@H](N[*:1])C(=O)[*:2]].K.C.[Dab].R.[Nle]}$PEPTIDE1,PEPTIDE1,9:R3-16:R3$$$V2.0)	0%	0.0625 µg/mL	0.03125 µg/mL	0.0625 µg/mL
CCCC[C@H](NC(=O)[C@H](CCCNC(=N)N)NC(=O)[C@H](CCN)NC(=O)[C@@H]1CSSC[C@H](NC(=O)[C@H](Cc2ccc(O)cc2)NC(=O)[C@H](CCCNC(=N)N)NC(=O)[C@@H](NC(=O)[C@@H]2CCCN2C(=O)[C@@H](NC(=O)[C@@H]2CCCN2C(=O)[C@H](CCCNC(=N)N)NC(=O)[C@@H](N)CCCCN)C(C)C)[C@@H](C)CC)C(=O)N[C@@H](CC(N)=O)C(=O)N[C@@H](CCCNC(=N)N)C(=O)N[C@@H](CCCNC(=N)N)C(=O)N[C@@H]([C@@H](C)O)C(=O)N[C@H](CCN)C(=O)N[C@@H](CCCCN)C(=O)N1)C(=O)O [Example 75] (HELM PEPTIDE1{K.R.P.V.P.I.R.Y.C.N.R.R.T.[NCC[C@@H](N[*:1])C(=O)[*:2]].K.C.[Dab].R.[Nle]}$PEPTIDE1,PEPTIDE1,9:R3-16:R3$$$V2.0)	0%	0.0625 µg/mL	≤0.0625 µg/mL	0.0625 µg/mL
CCCC[C@H](NC(=O)[C@H](CCCNC(=N)N)NC(=O)[C@H](CCN)NC(=O)[C@@H]1CSSC[C@H](NC(=O)[C@H](Cc2ccc(O)cc2)NC(=O)[C@@H](NC(=O)[C@@H](NC(=O)[C@@H]2CCCN2C(=O)[C@@H](NC(=O)[C@@H](CCCCN)NC(=O)[C@H](CCCCN)NC(=O)[C@H](N)C(C)C)C(C)C)[C@@H](C)CC)[C@@H](C)CC)C(=O)N[C@@H](CC(N)=O)C(=O)N[C@@H](CCCNC(=N)N)C(=O)N[C@@H](CCCNC(=N)N)C(=O)N[C@@H]([C@@H](C)O)C(=O)N[C@H](CCN)C(=O)N[C@@H](CCCCN)C(=O)N1)C(=O)O [Example 76] (HELM PEPTIDE1{[dV].K.[dK].V.P.I.I.Y.C.N.R.R.T.[NCC[C@@H](N[*:1])C(=O)[*:2]].K.C.[Dab].R.[Nle]}$PEPTIDE1,PEPTIDE1,9:R3-16:R3$$$V2.0)	0%	≤0.03125 µg/mL	0.0625 µg/mL	0.125 µg/mL
